# Assay results from patent publication US20100286285A1, “Pharmaceutical composition comprising oleaginous ointments and vitamin D or its derivatives in the solubilized state” (GALDERMA RESEARCH & DEVELOPMENT, priority 2005, published 2010).
# Test: Maximum solubility of the active agent in various excipients
# Type: physicochemical
smiles,measurement,setting,value
"CCCc1cc(C(O)(CC)CC)ccc1-c1cc(OCc2ccc(CO)c(CO)c2)ccc1CC [Active agent, {4-[6-ethyl-4′-(1-ethyl-1-hydroxypropyl)-2′-propylbiphenyl-3-yloxymethyl]-2-hydroxy-methylphenyl}methanol]",Sol max,in Arlamol E,1.033 % w/w
same,Sol max,in Cremophor RH40,3.989 % w/w
same,Sol max,in Ethanol 95,>20 % w/w
same,Sol max,in Eutanol G,0.322 % w/w
same,Sol max,in IPP,0.1654 % w/w
same,Sol max,in Labrafil M1944CS,0.936 % w/w
same,Sol max,in Miglyol 812,0.3167 % w/w
same,Sol max,in PEG 400,6.894 % w/w
same,Sol max,in Primol 352,0.0009 % w/w
same,Sol max,in Propylene glycol,2.3351 % w/w
same,Sol max,in Sweet almond oil,0.0932 % w/w
same,Sol max,in Transcutol,>20 % w/w
